The values that follow come from US20220144853A1, “IMIDAZOLINE DERIVATIVES AS CXCR4 MODULATORS” (Université de Paris, priority 2019, published 2022).

In assay [1] the target is T1, human CXCR4 (hCXCR4) receptor (Homo sapiens, UniProt P61073).
T1 construct: expressed in transfected cells; host or cells: HEK-293 T cells, transient co-transfection with polyethylenimine
As to the kind of experiment: BRET assay of antagonist activity on the CXCR4-CXCL12 signaling pathway in transfected HEK-293 T cells. Format: cell-based. Conditions: Gαi1, Gαi2, Gαi3, GαoB or Gαz, EC80 CXCL12, FIG. 6. The protocol:
Examples of the present invention were tested for their antagonist activity on human CXCR4 (hCXCR4) receptor transiently over-expressed in HEK-293 T cells. Compounds exert antagonist activity if they decrease the action of CXCL12 on the receptor.
HEK-293 T cells are maintained in Dulbecco's Modified Eagle's Medium supplemented with 10% Foetal Calf Serum, 1% Penicillin/Streptomycin at 37° C./5% CO2. […] After transfection, cells are cultured for 48 h at 37° C./5% CO2.
On the day of the assay, cells are detached using trypsin 0.05%, resuspended in assay buffer (1.8 mM CaCl2, 1 mM MgCl2, 2.7 mM KCl, 137 mM NaCl, 0.4 mM NaH2PO4, 5.5 mM D-Glucose, 11.9 mM NaHCO3, 25 mM Hepes) and seeded in 384 well plate at a density of 20,000 cells per well.
Cells are first incubated for 10 minutes with the compound alone. Then, cells are stimulated by an EC80 CXCL12 concentration for additional 10 minutes and luminescence is recorded. […] Antagonist activity is evaluated in comparison to basal signals evoked by EC80 CXCL12 alone.
For IC50 determination, a dose-response test is performed using 20 concentrations (ranging over 6 logs) of each compound. Dose-response curves are fitted using the sigmoidal dose-response (variable slope) analysis in GraphPad Prism software (GraphPad Software) and IC50 of antagonist activity is calculated. […]

Assay [2] relates to IFN production by activated PBMCs. As to the kind of experiment: IFN production by R848-activated PBMCs from healthy donors, twINNE reporter cell line. To be noted: Homo sapiens, PBMC, means of two results over 2 healthy donors, R848 5 μg/mL, IT1t: mean over all experiments, read-out: IC50 of anti-inflammatory activity (IFN production). In kind it is cell-based, human. An outline of the steps:
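Human PBMCs (4.10^6/mL, RPMI/10% FBS, 37° C) stimulated with R848 at 5 μg/mL; supernatants collected after 24 h. Functional IFN measured on twINNE cells (ISRE-driven luciferase reporter) after 24 h culture by bioluminescence; IC50 from variable-slope dose-response fits.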

Another assay relates to IL-1β. Briefly: Cytokine production by R848-activated PBMCs, LEGENDplex Human Inflammation panel 1: IL-1β. To be noted: Homo sapiens, PBMC, PBMCs from 2 healthy donors, R848 overnight, read-out: IC50 (μM) 1L-1β. In kind it is cell-based. The method, then:
(§1) 2) The PBMCs used herein were prepared as described in part A “immune cells preparation”, section 2) above. PBMCs were seeded at 4.10^6/mL. […] Cells were then stimulated with the TLR7/8 agonist resiquimod—R848 (Sigma-Aldrich, MO, USA) at 5 μg/mL.
(§2) Cytokine expression levels were assessed using LEGENDplex Human inflammation panel 1 Kit (BioLegend, California, USA), which is a bead-based multiplex assay, using fluorescence-encoded beads. […] First, supernatants of R848-stimulated PBMCs were harvested after 24 h of stimulation and frozen at −20° C. for storage. Supernatants were dispensed into a 96-well V-bottom plate. Protocol pursued as per manufacturer recommendations (Manual for BioLegend LEGENDplex, Multi-Analyte Flow Assay Kit, Human Inflammation Panel 1, version 750000393_R01).

The subject of the next assay is IFN-γ. As to the kind of experiment: Cytokine production by R848-activated PBMCs, LEGENDplex Human Inflammation panel 1: IFN-γ. Conditions: Homo sapiens, PBMC, PBMCs from 2 healthy donors, R848 overnight. In kind it is cell-based. The protocol: as §1, §2
In another assay the test system is TNF-α. Briefly: Cytokine production by R848-activated PBMCs, LEGENDplex Human Inflammation panel 1: TNF-α. Conditions: Homo sapiens, PBMC, PBMCs from 2 healthy donors, R848 overnight. In kind it is cell-based. The method, then:
as §1, §2

For another assay, the system named is IL-12p70. Briefly: Cytokine production by R848-activated PBMCs, LEGENDplex Human Inflammation panel 1: IL-12p70. In kind it is cell-based. To be noted: Homo sapiens, PBMC, PBMCs from 2 healthy donors, R848 overnight. The method, then:
as §1, §2

Counter-ions that a name gives are not always drawn.

T1 sequence (P61073 whole entry): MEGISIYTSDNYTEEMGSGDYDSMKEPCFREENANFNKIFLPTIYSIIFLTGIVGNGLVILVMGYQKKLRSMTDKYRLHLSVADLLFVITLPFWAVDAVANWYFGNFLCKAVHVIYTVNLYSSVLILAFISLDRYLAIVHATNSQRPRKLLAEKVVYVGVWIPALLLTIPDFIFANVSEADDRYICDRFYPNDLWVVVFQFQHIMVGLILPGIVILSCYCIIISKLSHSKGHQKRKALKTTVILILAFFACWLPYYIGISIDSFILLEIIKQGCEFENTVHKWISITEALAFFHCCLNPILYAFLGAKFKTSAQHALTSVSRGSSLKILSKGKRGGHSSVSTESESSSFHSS

A word on the IC50: it is the concentration at which inhibition is half-maximal. As to `CC1(C)CN2C(CSC3=NCC(C)(C)N3)=CSC2=N1` [Example 2, 3-(((5,5-dimethyl-4,5-dihydro-1H-imidazol-2-yl)thio)methyl)-6,6-dimethyl-5,6-dihydroimidazo[2,1-b]thiazole dihydrochloride], the “antagonist activity: recruitment of G proteins induced by the hCXCR4-CXCL12 interaction” value in assay [1] is on record as “significantly lower than IT1t”. The IC50 in assay [2] was 10 to 31 µM; in the assay on IL-1β it was 32 µM; with IFN-γ, 26 µM; in the assay on TNF-α, 46 µM; with IL-12p70 it was 14 µM.
